What all share (type): in vivo
The test system of one assay is Mythimna separata. Description: Test of efficacy on Mythimna separata (treated artificial feed). To be noted: second instar larvae, 1 μl of emulsion (I) (5% active ingredient) in 0.8 g artificial feed, fifth day, 25° C. How it is done:
5 parts of the compound of the present invention, 93.6 parts of dimethylformamide, and 1.4 parts of polyoxyethylene alkyl aryl ether were mixed and dissolved to prepare emulsion (I) containing 5% of the active ingredient. For a control, 93.6 parts of dimethylformamide and 1.4 parts of polyoxyethylene alkyl aryl ether were mixed and dissolved to prepare emulsion (II). An insecticidal rate was calculated according to the following expression: Insecticidal rate (%)=(The number of dead insects/The number of tested insects)×100 A control rate was calculated according to the following expression: Control rate (%)={1−(Nt)/(Nc)}×100 • Nc: The number of parasites in an untreated plot • Nt: The number of parasites in a spray treated plot 0.8 g of commercially available artificial feed (Insecta LFS, manufactured by Nosan Corp.) and 1 μl of the emulsion (I) were well mixed to obtain test feed. A plastic test container (capacity: 1.4 ml) was packed with 0.2 g of the test feed per treatment plot. Then, two second instar larvae of Mythimna separata were inoculated to each treatment plot. A plastic lid was put on the test container so as to prevent escape of the second instar larvae of Mythimna separata. The container was placed in a thermostat chamber of 25° C. On the fifth day, the insecticidal rate and the food intake were examined. The test was conducted in duplicate. […]

The test system of assay [1] is Plutella xylostella. Description: Test of efficacy on Plutella xylostella (cabbage leaf dip). To be noted: 125 ppm; cabbage leaves dipped 30 seconds; second instar larvae; after 3 days. How it is done: 5 parts of the compound of the present invention, 93.6 parts of dimethylformamide, and 1.4 parts of polyoxyethylene alkyl aryl ether were mixed and dissolved to prepare emulsion (I) containing 5% of the active ingredient. An insecticidal rate was calculated according to the following expression: Insecticidal rate (%)=(The number of dead insects/The number of tested insects)×100 A control rate was calculated according to the following expression: Control rate (%)={1−(Nt)/(Nc)}×100 • Nc: The number of parasites in an untreated plot • Nt: The number of parasites in a spray treated plot The emulsion (I) was diluted with water such that the concentration of the compound of the present invention was 125 ppm. Cabbage leaves were dipped in the dilution for 30 seconds. The resulting cabbage leaves were placed in a petri dish. Five second instar larvae of Plutella xylostella were released thereto. The petri dish was placed in a thermostat chamber having a temperature of 25° C. and a humidity of 60%. Life and death were determined after 3 days from the release of the insects, and the insecticidal rate was calculated. The test was conducted in duplicate.

In a further assay the test system is Aphis craccivora. Description: Test of efficacy on Aphis craccivora (spray on black-eyed peas). As to conditions: 125 ppm; sprayed; nymphs on black-eyed peas; after 4 days. As for the experimental part: (§1) 5 parts of the compound of the present invention, 93.6 parts of dimethylformamide, and 1.4 parts of polyoxyethylene alkyl aryl ether were mixed and dissolved to prepare emulsion (I) containing 5% of the active ingredient.
(§2) An insecticidal rate was calculated according to the following expression: Insecticidal rate (%)=(The number of dead insects/The number of tested insects)×100 A control rate was calculated according to the following expression: Control rate (%)={1−(Nt)/(Nc)}×100 • Nc: The number of parasites in an untreated plot • Nt: The number of parasites in a spray treated plot
Seedlings of black-eyed peas were raised in 10-cm pots. Aphis craccivora nymphs were inoculated onto primary leaves. The emulsion (I) was diluted with water such that the concentration of the compound of the present invention was 125 ppm. The dilution was sprayed to the black-eyed peas parasitized by the Aphis craccivora nymphs. The black-eyed peas were placed in a thermostat chamber having a temperature of 25° C. and a humidity of 60%. Life and death of Aphis craccivora were determined after 4 days from the spraying, and the insecticidal rate was calculated. The test was conducted in duplicate.

The test system of a further assay is Aphis gossypii. As to the kind of experiment: Test of efficacy on Aphis gossypii (spray on cucumbers). To be noted: 125 ppm; sprayed; first instar larvae on cucumbers; after 5 days. As for the experimental part:
5 parts of the compound of the present invention, 93.6 parts of dimethylformamide, and 1.4 parts of polyoxyethylene alkyl aryl ether were mixed and dissolved to prepare emulsion (I) containing 5% of the active ingredient. An insecticidal rate was calculated according to the following expression: Insecticidal rate (%)=(The number of dead insects/The number of tested insects)×100 A control rate was calculated according to the following expression: Control rate (%)={1−(Nt)/(Nc)}×100 • Nc: The number of parasites in an untreated plot • Nt: The number of parasites in a spray treated plot Cucumbers were sown in a 10-cm pot. An Aphis gossypii female adult was released to the cucumbers after 10 days from sprouting. On the next day, born first instar larvae were left, and the female adult was removed. Emulsion (I) was diluted with water such that the concentration of the compound of the present invention was 125 ppm. The dilution was sprayed to the cucumbers. The cucumbers were placed in a thermostat chamber having a temperature of 25° C. and a humidity of 60%. Life and death of Aphis gossypii were determined after 5 days, and the insecticidal rate was calculated.

In assay [2] the test system is Phyllotreta striolata adults. Description: Test of efficacy on Phyllotreta striolata (spray on Qing geng cai seedlings). As to conditions: 125 ppm, sprayed on Qing geng cai seedlings, after 7 days. How it is done: as §1, §2
The emulsion (I) was diluted with water such that the concentration of the compound of the present invention was 125 ppm to prepare a test chemical. The dilution was sprayed to Qing geng cai seedlings (at the seventh true leaf stage) planted in 10-cm pots. The Qing geng cai seedlings were dried in air and then placed in a plastic cup. Ten Phyllotreta striolata adults were released thereto. The plastic cup was stored in a thermostat chamber having a temperature of 25° C. and a humidity of 65%. Life and death were determined after 7 days from the release of the insects, and the insecticidal rate was calculated. The test was conducted in duplicate.

The test system of a further assay is Musca domestica. Description: Test of efficacy on Musca domestica (treated lump sugar). To be noted: 100 ppm on lump sugar; female adults; after 24 hours. As for the experimental part:
as §2
The compound of the present invention was diluted with acetone, and the dilution was added dropwise to 1 g of lump sugar such that the concentration was 100 ppm. The lump sugar was placed in a plastic cup, ten Musca domestica female adults were released, and a lid was put on the cup. The plastic cup was stored at 25° C. Life and death were determined after 24 hours from the release of the insects, and the insecticidal rate was calculated. The test was conducted in duplicate.

Assay [3] concerns Plutella xylostella. As to the kind of experiment: Test of soil irrigation treatment against Plutella xylostella. As to conditions: investigated after 3 days; for Control rate % 21 days after: first instar larvae inoculated 21 days after transplant; for Control rate % 28 days after: first instar larvae inoculated 28 days after transplant. As for the experimental part:
5 parts of the compound of the present invention, 93.6 parts of dimethylformamide, and 1.4 parts of polyoxyethylene alkyl aryl ether were mixed and dissolved to prepare emulsion (I) containing 5% of the active ingredient. An insecticidal rate was calculated according to the following expression: Insecticidal rate (%)=(The number of dead insects/The number of tested insects)×100 A control rate was calculated according to the following expression: Control rate (%)={1−(Nt)/(Nc)}×100 • Nc: The number of parasites in an untreated plot • Nt: The number of parasites in a spray treated plot The emulsion (I) was diluted with water such that the concentration of the compound of the present invention was 500 ppm or 250 ppm. Then, 500 mL of the dilution was subjected to irrigation treatment per 128-hole cell tray in which cabbage seedlings were planted. The cell seedlings were transplanted to No. 4 pots and maintained in a thermostat chamber having a temperature of 25° C. and a humidity of 65%. Then, 50 first instar larvae of Plutella xylostella were inoculated on the whole of a cabbage after 21 days and 28 days from the transplant, respectively. The life and the death of Plutella xylostella were investigated after 3 days, and a control rate was calculated according to the following expression. The test was conducted in quadruplicate. Control rate (%)={1−(Nt)/(Nc)}×100 • Nc: The number of parasites in an untreated plot • Nt: The number of parasites in a spray treated plot

[4] abbreviates: 250 ppm soil irrigation of cabbage seedlings.
[5] abbreviates: 500 ppm soil irrigation of cabbage seedlings.

The values below come from patent publication US12439920B2, “Pyridine n-oxide compound and pest control agent” (Nippon Soda Co., Ltd., priority 2019, dated 2025).

With `CCS(=O)(=O)c1cc(C2CC2)c[n+]([O-])c1-c1nc2cc(S(=O)(=O)C(F)(F)F)ccc2o1` [A-1, 5-cyclopropyl-3-(ethylsulfonyl)-2-(5-((trifluoromethyl)sulfonyl)benzo[d]oxazol-2-yl)pyridine 1-oxide], the insecticidal rate in the assay on Mythimna separata (stated as alternative to food intake ('or')) is on record as 100%; in the assay on Plutella xylostella [1] it was at least 80%; with Aphis craccivora, at least 80%; in the assay on Aphis gossypii, at least 80%; in assay [2] it was at least 80%; in the assay on Musca domestica, at least 80%. In addition, in the assay on Mythimna separata (stated as alternative to insecticidal rate ('or')), the “food intake as compared with the control plot” value is recorded as at most 10%. Further, the “Control rate % 21 days after” value is recorded as 98% in the assay with Plutella xylostella [3] (setting [4]) and 100% in the assay with Plutella xylostella [3] (setting [5]). Further, the “Control rate % 28 days after” value was 99% with Plutella xylostella [3] (setting [4]) and 100% in the assay with Plutella xylostella [3] (setting [5]).
